Laboratory results: patent US20130116287A1 (priority 2010, published 2013)
Several values for one entry are separate records, joined by “and”; a condition that tells them apart may be missing. Equal values may be shown once. Read-outs that look alike come from different tables or passages of the source.

How the values were obtained:
[1] = Measurement of logP values by HPLC on reversed phase columns (EEC directive 79/831 Annex V.A8); assay type: physicochemical; settings: for Log P: pH 2.7, 0.1% formic acid in water / acetonitrile, single value
Phytophthora infestans = assay type: in vivo; settings: 500 ppm of active ingredient; tomato, preventive; evaluated 7 days after inoculation; 100% = no disease
Plasmopara viticola = experiment: Plasmopara test (grapevines) / preventive; assay type: in vivo; settings: 100 ppm of active ingredient, evaluated 6 days after inoculation, 100% = no disease
Method: Plasmopara Test (Grapevines)/Preventive
Solvent: 24.5 parts by weight of acetone
24.5 parts by weight of dimethylacetamide
Emulsifier: 1 part by weight of alkylaryl polyglycol ether
To produce a suitable preparation of active compound, 1 part by weight of active compound is mixed with the stated amounts of solvent and emulsifier, and the concentrate is diluted with water to the desired concentration.
To test for preventive activity, young plants are sprayed with the preparation of active compound at the stated rate of application. After the spray coating has dried on, the plants are inoculated with an aqueous spore suspension of Plasmopara viticola and then remain for 1 day in an incubation cabinet at approximately 20° C. and a relative atmospheric humidity of 100%. The plant is subsequently placed for 4 days in a greenhouse at approximately 21° C. and a relative atmospheric humidity of approximately 90%. The plants are then misted and placed for 1 day in an incubation cabinet.
The test is evaluated 6 days after the inoculation. 0% means an efficacy which corresponds to that of the untreated control, while an efficacy of 100% means that no disease is observed.

[2] = HPLC, pH 2.7, 0.1% formic acid, minor isomer
[3] = HPLC, pH 2.7, 0.1% formic acid, main isomer

Row | Compound | efficacy (Phytophthora infestans) [%] | efficacy (Plasmopara viticola) [%] | Log P ([1]; HPLC) | other results
1 | Cc1snnc1C(=NOCc1cccc(NC(=O)CSc2ccccc2)n1)c1ccccc1 (mixture of isomers) [Example 6] | 98 | 86 |  | Log P [I2] minor isomer [1, 2]: 4.09
2 | Cc1snnc1C(=NOCc1csc(NC(=O)COc2ccccc2)n1)c1ccccc1 (mixture of isomers) [Example 7] | 100 | 88 |  | Log P (two values printed, isomers not assigned) ([1]; HPLC, pH 2.7, 0.1% formic acid, two values without isomer tag): 3.71 and 3.83
3 | Cc1snnc1C(=NOCc1csc(NC(=O)COCc2ccccc2)n1)c1ccccc1 (mixture of isomers) [Example 28] | 100 | 93 |  | Log P [I1] main isomer [1, 3]: 3.96; Log P [I2] minor isomer [1, 2]: 3.85
4 | COc1ccccc1OCC(=O)Nc1nc(CON=C(c2ccccc2)c2nnsc2C)cs1 (mixture of isomers) [Example 57] | 100 | 72 |  | Log P [I1] main isomer [1, 3]: 3.89; Log P [I2] minor isomer [1, 2]: 3.78
5 | Cc1snnc1C(=NOCc1cccc(NC(=O)C(F)(F)Oc2ccccc2)n1)c1ccccc1 [Example 2] | 100 | 74 | 4.54 | 
6 | Cc1snnc1C(=NOCc1csc(NC(=O)COCCC(C)C)n1)c1ccccc1 [Example 3] | 95 | 84 | 4.36 | 
7 | Cc1snnc1C(=NOCc1csc(NC(=O)COc2ccccc2)n1)c1ccccc1 [Example 8] | 100 | 72 | 3.8 | 
8 | Cc1snnc1C(=NOCc1csc(NC(=O)C(C)Oc2ccccc2)n1)c1ccccc1 (stereo not shown) [Example 15] | 100 | 93 | 4.04 | 
9 | Cc1snnc1C(=NOCc1csc(NC(=O)COC2CCCC2)n1)c1ccccc1 [Example 23] | 95 | 91 | 4.09 | 
10 | C=CCOC(C)C(=O)Nc1nc(CON=C(c2ccccc2)c2nnsc2C)cs1 (stereo not shown) [Example 25] | 98 | 77 | 3.61 | 
11 | Cc1snnc1C(=NOCc1csc(NC(=O)COCc2ccccc2)n1)c1ccccc1 [Example 27] | 100 | 89 | 3.92 | 
12 | Cc1snnc1C(=NOCc1csc(NC(=O)C(C)OCC2CC2)n1)c1ccccc1 (stereo not shown) [Example 39] | 97 | 91 | 3.83 | 
13 | Cc1snnc1C(=NOCc1csc(NC(=O)COCC2CCC2)n1)c1ccccc1 [Example 53] | 97 | 95 | 4.11 | 
14 | Cc1snnc1C(=NOCc1csc(NC(=O)COC2CCCCC2)n1)c1ccccc1 [Example 59, 2-(cyclohexyloxy)-N-{4-[({[(5-methyl-1,2,3-thiadiazol-4-yl)(phenyl)methylene]amino}oxy)methyl]-1,3-thiazol-2-yl}acetamide] | 97 | 75 |  | chromatographic logP ([1]; pH 2.7, HPLC, pH 2.7, 0.1% formic acid, main isomer, read-out: Log P [I1] main isomer): 4.41; chromatographic logP ([1]; pH 2.7, HPLC, pH 2.7, 0.1% formic acid, minor isomer, read-out: Log P [I2] minor isomer): 4.32; chromatographic logP ([1]; reversed phase HPLC columns, pH 2.7, mixture of Z and E diastereoisomers, preparation example 1, read-out: logP(HCOOH)): 4.41
15 | Cc1snnc1C(=NOCc1csc(NC(=O)COCC(C)C)n1)c1ccccc1 [Example 63] | 100 | 75 | 4.01 | 
16 | Cc1snnc1C(=NOCc1csc(NC(=O)COC(C)C)n1)c1ccccc1 [Example 65] | 95 | 84 | 3.59 | 
17 | Cc1snnc1C(=NOCc1csc(NC(=O)C(C)OCC2CCCCC2)n1)c1ccccc1 (stereo not shown) [Example 73] | 100 |  | 5.35 | 
18 | Cc1snnc1C(=NOCc1cccc(NC(=O)C(C)OCC2CCCCC2)n1)c1ccccc1 (stereo not shown) [Example 74] | 94 |  | 5.87 | 
19 | Cc1snnc1C(=NOCc1csc(NC(=O)C(C)OCC2CCCC2)n1)c1ccccc1 (stereo not shown) [Example 75] | 100 |  | 4.9 | 
20 | Cc1snnc1C(=NOCc1cccc(NC(=O)C(C)OCC2CCCC2)n1)c1ccccc1 (stereo not shown) [Example 76] | 97 |  | 5.39 | 
21 | Cc1snnc1C(=NOCc1csc(NC(=O)COCCC2CCCC2)n1)c1ccccc1 [Example 77] | 95 |  | 4.91 | 
22 | Cc1snnc1C(=NOCc1cccc(NC(=O)COCCC2CCCC2)n1)c1ccccc1 [Example 78] | 89 |  | 5.39 | 

Row | Compound | efficacy (Phytophthora infestans) [%] | efficacy (Plasmopara viticola) [%] | Log P ([1]; HPLC) | other results
23 | Cc1snnc1C(=NOCc1csc(NC(=O)COCCC2CCCCC2)n1)c1ccccc1 [Example 83] | 95 |  | 5.28 | 
24 | Cc1snnc1C(=NOCc1cccc(NC(=O)COCCC2CCCCC2)n1)c1ccccc1 [Example 84] | 75 |  | 5.81 | 
25 | Cc1snnc1C(=NOCc1csc(NC(=O)C(C)OCC(C)C)n1)c1ccccc1 (stereo not shown) [Example 85] | 95 | 73 |  | 
26 | Cc1snnc1C(=NOCc1cccc(NC(=O)C(C)OCC(C)C)n1)c1ccccc1 (stereo not shown) [Example 86] | 95 |  | 4.83 | 
27 | Cc1snnc1C(=NOCc1csc(NC(=O)CSC2CCCCC2)n1)c1ccccc1 [Example 87] | 97 |  | 4.46 | 
28 | Cc1snnc1C(=NOCc1cccc(NC(=O)CSC2CCCCC2)n1)c1ccccc1 [Example 88] | 97 |  | 4.87 | 
29 | C=CCSCC(=O)Nc1nc(CON=C(c2ccccc2)c2nnsc2C)cs1 [Example 91] | 95 |  | 3.52 | 
30 | C=CCSCC(=O)Nc1cccc(CON=C(c2ccccc2)c2nnsc2C)n1 [Example 92] | 90 |  | 3.79 | 
31 | Cc1snnc1C(=NOCc1cccc(NC(=O)C(C)OCc2ccccc2)n1)c1ccccc1 (stereo not shown) [Example 94] | 95 |  | 4.58 | 
32 | Cc1snnc1C(=NOCc1csc(NC(=O)C(C)Oc2ccc(F)cc2)n1)c1ccccc1 (stereo not shown) [Example 95] | 100 |  | 4.06 | 
33 | Cc1snnc1C(=NOCc1csc(NC(=O)C(C)SCc2ccccc2)n1)c1ccccc1 (stereo not shown) [Example 98] | 98 |  | 4.26 | 
34 | Cc1snnc1C(=NOCc1cccc(NC(=O)C(C)SCc2ccccc2)n1)c1ccccc1 (stereo not shown) [Example 99] | 100 |  | 4.58 | 
35 | Cc1snnc1C(=NOCc1csc(NC(=O)C(C)(C)Oc2ccccc2)n1)c1ccccc1 [Example 102] | 100 |  | 4.53 | 
36 | Cc1snnc1C(=NOCc1cccc(NC(=O)C(C)(C)Oc2ccccc2)n1)c1ccccc1 [Example 103] | 100 |  | 4.93 | 
37 | C#CCOC(CC)C(=O)Nc1nc(CON=C(c2ccccc2)c2nnsc2C)cs1 (stereo not shown) [Example 104] | 98 |  | 3.61 | 
38 | C#CCOC(CC)C(=O)Nc1cccc(CON=C(c2ccccc2)c2nnsc2C)n1 (stereo not shown) [Example 105] | 95 |  | 3.9 | 
39 | Cc1snnc1C(=NOCc1csc(NC(=O)CSC2CCCC2)n1)c1ccccc1 [Example 106] | 92 |  | 4.14 | 
40 | Cc1snnc1C(=NOCc1cccc(NC(=O)CSC2CCCC2)n1)c1ccccc1 [Example 107] | 92 |  | 4.51 | 
41 | Cc1snnc1C(=NOCc1csc(NC(=O)COCC2CCCC2)n1)c1ccccc1 [Example 108] | 100 |  | 4.53 | 
42 | Cc1snnc1C(=NOCc1cccc(NC(=O)COCC2CCCC2)n1)c1ccccc1 [Example 109] | 89 |  | 5.01 | 
43 | CC(=NOCC(=O)Nc1cccc(CON=C(c2ccccc2)c2nnsc2C)n1)c1ccccc1 [Example 112] | 95 |  | 4.51 | 
